The target in the assay is kinase domain of IRE1 alpha (His-tagged kinase dead construct KR, AA G547-L977, D688N) (Homo sapiens (Human), UniProt O75460, D688N). In words: IRE1α TR-FRET competition binding assay. Conditions: competition with Kinase Tracer 236, 0.1 μM; one hour at room temperature. The essentials: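 Compound displacement of an ATP-site fluorescent tracer (0.1 μM final) measured by TR-FRET after 1 h at room temperature. Protein, a His-tagged D688N kinase/RNase construct from Sf9 cells (0.006 μM final), was pre-bound 1 h at 4° C to Eu anti-His antibody (0.002 μM) in pH 7.5 HEPES buffer.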
Sequence of kinase domain of IRE1 alpha (His-tagged kinase dead construct KR, AA G547-L977, D688N) (O75460 547-977 D688N): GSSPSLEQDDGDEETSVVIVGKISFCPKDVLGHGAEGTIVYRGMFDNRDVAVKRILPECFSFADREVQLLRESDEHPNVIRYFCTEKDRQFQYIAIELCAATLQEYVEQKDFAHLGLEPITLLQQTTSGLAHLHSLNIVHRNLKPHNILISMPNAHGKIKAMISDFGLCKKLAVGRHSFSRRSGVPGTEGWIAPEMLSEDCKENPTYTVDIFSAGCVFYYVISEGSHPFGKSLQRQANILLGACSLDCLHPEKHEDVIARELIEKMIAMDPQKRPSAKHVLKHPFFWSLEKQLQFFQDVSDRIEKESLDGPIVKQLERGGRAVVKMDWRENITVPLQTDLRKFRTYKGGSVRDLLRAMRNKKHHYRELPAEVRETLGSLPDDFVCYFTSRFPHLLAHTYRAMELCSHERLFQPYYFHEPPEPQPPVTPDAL
For orientation: Time-resolved FRET reads energy transfer from a long-lived donor to a nearby acceptor.

pIC50: −log10 of the molar value. Counter-ions that a name gives are not always drawn.

`O=S(=O)(CC1CCCCC1)Nc1ccc(Oc2ncccc2-c2ccnc(N[C@H]3CCCNC3)n2)c(F)c1F` [Compound 145, (S)-1-Cyclohexyl-N-(2,3-difluoro-4-((3-(2-(piperidin-3-ylamino)pyrimidin-4-yl)pyridin-2-yl)oxy)phenyl)methanesulfonamide hydrochloride] had a pIC50 of 8.11.
The figure for `O=S(=O)(Cc1ccccc1F)Nc1ccc(Oc2ncccc2-c2ccnc(N[C@H]3CCCNC3)n2)c(F)c1F` [Compound 146, (S)-N-(2,3-difluoro-4-((3-(2-(piperidin-3-ylamino)pyrimidin-4-yl)pyridin-2-yl)oxy)phenyl)-1-(2-fluorophenyl)methanesulfonamide hydrochloride] is 8.40.
The result for `O=C(Nc1ccc(Oc2ncccc2-c2ccnc(N[C@H]3CCCNC3)n2)c(F)c1F)C1CC1` [Compound 147, (S)—N-(2,3-Difluoro-4-(3-(2-(piperidin-3-ylamino)pyrimidin-4-yl)pyridin-2-yloxy)phenyl)cyclopropanecarboxamide hydrochloride] reads 6.68; that for `CCC(F)(F)CS(=O)(=O)Nc1ccc(Oc2ncccc2-c2ccnc(N[C@H]3CCCNC3)n2)c(F)c1F` [Compound 148, (S)-N-(2,3-Difluoro-4-((3-(2-(piperidin-3-ylamino)pyrimidin-4-yl)pyridin-2-yl)oxy)phenyl)-2,2-difluorobutane-1-sulfonamide hydrochloride], 8.19; that for `CC(F)(F)CCS(=O)(=O)Nc1ccc(Oc2ncccc2-c2ccnc(N[C@H]3CCCNC3)n2)c(F)c1F` [Compound 149, (S)-N-(2,3-difluoro-4-((3-(2-(piperidin-3-ylamino)pyrimidin-4-yl)pyridin-2-yl)oxy)phenyl)-3,3-difluorobutane-1-sulfonamide hydrochloride], 8.06.
The result for `O=C(Nc1ccc(Oc2ncccc2-c2ccnc(N[C@H]3CCCNC3)n2)c(F)c1F)C1CC12CC2` (stereo partly drawn) [Compound 151, N-(2,3-difluoro-4-((3-(2-(((S)-piperidin-3-yl)amino)pyrimidin-4-yl)pyridin-2-yl)oxy)phenyl)spiro[2.2]pentane-1-carboxamide hydrochloride] reads 7.08; that for `O=S(=O)(Cc1ccccc1)Nc1c(F)cc(Oc2ncccc2-c2ccnc(N[C@H]3CCCNC3)n2)cc1F` [Compound 152, (S)-N-(2,6-difluoro-4-((3-(2-(piperidin-3-ylamino)pyrimidin-4-yl)pyridin-2-yl)oxy)phenyl)-1-phenylmethanesulfonamide hydrochloride], 8.41.
`O=S(=O)(Cc1ccccc1)Nc1c(F)cc(Oc2ncccc2-c2ccnc(N[C@H]3CCCNC3)n2)c(F)c1F` [Compound 153, (S)-1-Phenyl-N-(2,3,6-trifluoro-4-((3-(2-(piperidin-3-ylamino)pyrimidin-4-yl)pyridin-2-yl)oxy)phenyl)methanesulfonamide hydrochloride] showed a negative-log IC50 (pIC50) of 8.42.
As to `Cc1c(Oc2ncccc2-c2ccnc(N[C@H]3CCCNC3)n2)cc(F)c(NS(=O)(=O)Cc2ccccc2)c1F` [Compound 154, (S)-N-(2,6-difluoro-3-methyl-4-(3-(2-(piperidin-3-ylamino)pyrimidin-4-yl)pyridin-2-yloxy)phenyl)(phenyl)methanesulfonamide hydrochloride], the pIC50 is 8.42.
The figure for `Cc1cc(NS(=O)(=O)Cc2ccccc2)c(F)c(F)c1Oc1ncccc1-c1ccnc(N[C@H]2CCCNC2)n1` [Compound 155, (S)-N-(2,3-difluoro-5-methyl-4-((3-(2-(piperidin-3-ylamino)pyrimidin-4-yl)pyridin-2-yl)oxy)phenyl)-1-phenylmethanesulfonamide] is 8.35.
The result for `O=S(=O)(Cc1ccccc1)Nc1cc(F)c(Oc2ncccc2-c2ccnc(N[C@H]3CCCNC3)n2)c(F)c1F` [Compound 156, (S)-1-phenyl-N-(2,3,5-trifluoro-4-((3-(2-(piperidin-3-ylamino)pyrimidin-4-yl)pyridin-2-yl)oxy)phenyl)methanesulfonamide hydrochloride] reads 8.34; that for `Cc1cc(NS(=O)(=O)Cc2ccccc2)ccc1Oc1ncccc1-c1ccnc(N[C@H]2CCCNC2)n1` [Compound 157, (S)-N-(3-methyl-4-((3-(2-(piperidin-3-ylamino)pyrimidin-4-yl)pyridin-2-yl)oxy)phenyl)-1-phenylmethanesulfonamide], 7.54.
The figure for `Cc1cc(NS(=O)(=O)Cc2ccccc2)c(F)cc1Oc1ncccc1-c1ccnc(N[C@H]2CCCNC2)n1` [Compound 158, (S)-N-(2-fluoro-5-methyl-4-(3-(2-(piperidin-3-ylamino)pyrimidin-4-yl)pyridin-2-yloxy)phenyl)(phenyl)methanesulfonamide] is 8.29.
With `O=S(=O)(Cc1ccccc1)Nc1ccc(Oc2ncccc2-c2ccnc(N[C@H]3CCCNC3)n2)c(F)c1` [Compound 159, (S)-N-(3-fluoro-4-((3-(2-(piperidin-3-ylamino)pyrimidin-4-yl)pyridin-2-yl)oxy)phenyl)-1-phenylmethanesulfonamide], the pIC50 is 7.96. Against the preceding molecule, the pIC50 is 0.33 log units lower.
The result for `Cc1cc(Oc2ncccc2-c2ccnc(N[C@H]3CCCNC3)n2)c(F)c(F)c1NS(=O)(=O)Cc1ccccc1` [Compound 160, (S)-N-(2,3-difluoro-6-methyl-4-((3-(2-(piperidin-3-ylamino)pyrimidin-4-yl)pyridin-2-yl)oxy)phenyl)-1-phenylmethanesulfonamide] reads 8.27.
The result for `O=S(=O)(Cc1ccccc1)Nc1ccc(Oc2ncccc2-c2ccnc(N[C@H]3CCCNC3)n2)c(F)c1Cl` [Compound 161, (S)—N-(2-Chloro-3-fluoro-4-((3-(2-(piperidin-3-ylamino)pyrimidin-4-yl)pyridin-2-yl)oxy)phenyl)-1-phenylmethanesulfonamide] reads 8.38; that for `C[C@]1(F)CNC[C@@H](Nc2nccc(-c3cccnc3Oc3ccc(NS(=O)(=O)Cc4ccccc4)c(F)c3F)n2)C1` [Compound 162, N-(2,3-difluoro-4-((3-(2-(((3S,5R)-5-fluoro-5-methylpiperidin-3-yl)amino)pyrimidin-4-yl)pyridin-2-yl)oxy)phenyl)-1-phenylmethanesulfonamide], 8.16; that for `N#Cc1c(NS(=O)(=O)Cc2ccccc2)ccc(Oc2ncccc2-c2ccnc(N[C@H]3CCCNC3)n2)c1F` [Compound 163, (S)-N-(2-cyano-3-fluoro-4-((3-(2-(piperidin-3-ylamino)pyrimidin-4-yl)pyridin-2-yl)oxy)phenyl)-1-phenylmethanesulfonamide hydrochloride], 8.18.
The result for `Cc1c(Oc2ncccc2-c2ccnc(N[C@@H]3CNC[C@H](C)C3)n2)cc(F)c(NS(=O)(=O)Cc2ccccc2)c1F` [Compound 164, N-(2,6-Difluoro-3-methyl-4-((3-(2-(((3S,5R)-5-methyl-3-piperidyl)amino)pyrimidin-4-yl)-2-pyridyl)oxy)phenyl)-1-phenyl-methanesulfonamide] reads 8.40; that for `C[C@H]1CNC[C@@H](Nc2nccc(-c3cccnc3Oc3cc(F)c(NS(=O)(=O)Cc4ccccc4)c(F)c3F)n2)C1` [Compound 165, 1-phenyl-N-(2,3,6-trifluoro-4-((3-(2-(((3S,5R)-5-methyl-3-piperidyl)amino)pyrimidin-4-yl)-2-pyridyl)oxy)phenyl)methanesulfonamide], 8.57.
`N#Cc1ccc(CS(=O)(=O)Nc2ccc(Oc3ncccc3-c3ccnc(N[C@H]4CCCNC4)n3)c(F)c2F)cc1` [Compound 166, (S)-1-(4-cyanophcnyl)-N-(2,3-difluoro-4-((3-(2-(piperidin-3-ylamino)pyrimidin-4-yl)pyridin-2-yl)oxy)phenyl)methanesulfonamide] had a pIC50 of 8.46. This pIC50 and that of the molecule before are within 0.2 log units of each other.
Molecule `O=S(=O)(Cc1ccccc1)Nc1ccc(Oc2ncccc2-c2ccnc(N[C@H]3CCNC3)n2)c(F)c1F` [Compound 167, (S)—N-(2,3-Difluoro-4-((3-(2-(pyrrolidin-3-ylamino)pyrimidin-4-yl)pyridin-2-yl)oxy)phenyl)-1-phenylmethanesulfonamide] gave a pIC50 of 7.77.
Regarding `CN1CCC(Nc2nccc(-c3cccnc3Oc3ccc(NS(=O)(=O)Cc4ccccc4)c(F)c3F)n2)CC1` [Compound 168, N-(2,3-difluoro-4-((3-(2-((1-methylpiperidin-4-yl)amino)pyrimidin-4-yl)pyridin-2-yl)oxy)phenyl)-1-phenylmethanesulfonamide], the pIC50 is 7.17.
The figure for `N[C@H]1CC[C@H](Nc2nccc(-c3cccnc3Oc3ccc(NS(=O)(=O)Cc4ccccc4)c(F)c3F)n2)CC1` [Compound 169, N-(4-((3-(2-(((1r,4r)-4-Aminocyclohexyl)amino)pyrimidin-4-yl)pyridin-2-yl)oxy)-2,3-difluorophenyl)-1-phenylmethanesulfonamide] is 8.39.
The result for `CN1CCC[C@H](Nc2nccc(-c3cccnc3Oc3ccc(NS(=O)(=O)Cc4ccccc4)c(F)c3F)n2)C1` [Compound 170, (S)-N-(2,3-difluoro-4-((3-(2-((1-methylpiperidin-3-yl)amino)pyrimidin-4-yl)pyridin-2-yl)oxy)phenyl)-1-phenylmethanesulfonamide] reads 7.96; that for `NCCNc1nccc(-c2cccnc2Oc2ccc(NS(=O)(=O)Cc3ccccc3)c(F)c2F)n1` [Compound 171, N-(4-((3-(2-((2-aminoethyl)amino)pyrimidin-4-yl)pyridin-2-yl)oxy)-2,3-difluorophenyl)-1-phenylmethanesulfonamide], 6.74.
The figure for `CNCCNc1nccc(-c2cccnc2Oc2ccc(NS(=O)(=O)Cc3ccccc3)c(F)c2F)n1` [Compound 172, N-(2,3-difluoro-4-((3-(2-(2-(methylamino)ethylamino)pyrimidin-4-yl)-2-pyridyl)oxy)phenyl)-1-phenyl-methanesulfonamide] is 7.38.

By pIC50 is commonly meant the negative decadic logarithm of the IC50, by convention in mol/L.
